# Measured values from PubChem BioAssay (NCI).
# Several values for one entry are separate records, joined by “and”; a condition that tells them apart may be missing. Equal values may be shown once.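 Cells were grown in 96-well plates and exposed to each compound for 48 hours at five concentrations; endpoints were interpolated linearly between bracketing concentrations, or set to the highest concentration if not reached. GI50 = concentration required for 50% inhibition of growth. TGI: concentration producing complete growth inhibition.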
# How the values were obtained:
# Test in all cases: inhibition of tumour cell growth, NCI panel, 48 h
# ACHN renal = tested on: ACHN renal
# CCRF-CEM leukemia = tested on: CCRF-CEM leukemia
# HCC-2998 colon = tested on: HCC-2998 colon
# M14 melanoma = tested on: M14 melanoma
# OVCAR-5 ovarian = tested on: OVCAR-5 ovarian
# SF-268 CNS = tested on: SF-268 CNS
# SNB-19 CNS = tested on: SNB-19 CNS
# SNB-75 CNS = tested on: SNB-75 CNS
# COLO 205 colon = tested on: COLO 205 colon
# MCF7 breast = tested on: MCF7 breast
SMILES,TGI (ACHN renal),TGI (CCRF-CEM leukemia),TGI (HCC-2998 colon),TGI (M14 melanoma),TGI (OVCAR-5 ovarian),TGI (SF-268 CNS),TGI (SNB-19 CNS),TGI (SNB-75 CNS),TGI (COLO 205 colon),GI50 (ACHN renal),GI50 (CCRF-CEM leukemia),GI50 (COLO 205 colon),GI50 (HCC-2998 colon),GI50 (M14 melanoma),GI50 (OVCAR-5 ovarian),GI50 (SF-268 CNS),GI50 (SNB-19 CNS),GI50 (SNB-75 CNS),TGI (MCF7 breast)
CCCCCCCCCCCCCCCCCC(=O)OCC(C[As](=O)(O)O)OC(=O)CCCCCCCCCCCCCCCCC (stereo unspecified),> 100 µM,> 100 µM,> 100 µM,> 100 µM,> 100 µM,> 100 µM,77.4 µM,81.6 µM,,,,,,,,,,,
NC(=O)Nc1c([N+](=O)[O-])cc(C(F)(F)F)cc1[N+](=O)[O-],> 100 µM,> 100 µM,,> 100 µM,> 100 µM,> 100 µM,> 100 µM,,98.1 µM,,,,,,,,,,
CC1=NC(C(C)C)C(=O)O1 (stereo unspecified),> 100 µM,> 100 µM,> 100 µM,> 100 µM,> 100 µM,> 100 µM,> 100 µM,> 100 µM,> 100 µM,,,,,,,,,,
CN(C)C1=NC2=S(SC(Nc3ccccc3)=N2)S1 (stereo unspecified),> 100 µM,> 100 µM,> 100 µM,> 100 µM,> 100 µM,> 100 µM,97.9 µM,60.6 µM,,,,,,,,,,,
c1ccc(CN2CCCCC(Sc3ccccc3)CC2)cc1 (stereo unspecified),> 100 µM,43.8 µM,29.8 µM,32 µM,45.1 µM,> 100 µM,> 100 µM,> 100 µM,26.2 µM,,,,,,,,,,
CCC[CH2][Sn]1([CH2]CCC)[O]CC(CN2CCOCC2)[O]1 (stereo unspecified),9.61 µM,4.84 µM,21.6 µM,10.3 µM,32.8 µM,5.52 µM,19.6 µM,7.05 µM,9.59 µM,3.02 µM,0.995 µM,3.58 µM,8.82 µM,2.86 µM,18.8 µM,1.79 µM,7.65 µM,2.16 µM,
COC(=O)C1=C(c2ccc3c(c2)OCO3)OC(c2ccc3c(c2)OCO3)C1 (stereo unspecified),> 100 µM,> 100 µM,> 100 µM,> 100 µM,> 100 µM,> 100 µM,,> 100 µM,> 100 µM,,,,,,,,,,
N#Cc1cc(N(CCCl)CCCl)c([N+](=O)[O-])cc1[N+](=O)[O-],> 100 µM,98.2 µM,,> 100 µM,> 100 µM,> 100 µM,> 100 µM,,> 100 µM,,,,,,,,,,> 100 µM
COC(=O)C1=C(CS(=O)c2ccc([N+](=O)[O-])cc2[N+](=O)[O-])ON(C)C1c1ccccc1 (stereo unspecified),> 100 µM,37.9 µM,> 56.7 µM,> 100 µM,> 100 µM,> 100 µM,> 87.9 µM,77.6 µM,> 65 µM,,,,,,,,,,
CCCCCNC(=O)c1c(O)[nH]c(=S)[nH]c1=O,> 100 µM,> 100 µM,,> 100 µM,> 100 µM,> 100 µM,> 100 µM,> 100 µM,> 100 µM,,,,,,,,,,
O=C1OC(c2ccccc2)=N/C1=C\c1cc(Cl)ccc1Cl,> 100 µM,66.8 µM,> 100 µM,> 100 µM,> 100 µM,> 100 µM,> 100 µM,36.3 µM,> 100 µM,,,,,,,,,,
NC(=O)CCC(NC(=O)Cc1ccccc1)C(=O)O (stereo unspecified) (tested in a mixture with another compound),,> 8130 µM,> 8130 µM,> 8130 µM,> 8130 µM,> 8130 µM,> 8130 µM,1680 µM and > 8130 µM,> 8130 µM,,,,,,,,,,
COC(=O)CS(=O)c1ccccc1 (stereo unspecified),> 100 µM,63.2 µM,> 100 µM,> 100 µM,> 100 µM,91.6 µM,> 100 µM,,> 100 µM,,,,,,,,,,
O=C(c1nc2ccc(Cl)cc2[nH]c1=O)C(O)c1ccc2c(c1)OCO2 (stereo unspecified),> 100 µM,> 100 µM,> 100 µM,> 100 µM,> 100 µM,> 100 µM,,> 100 µM,> 100 µM,,,,,,,,,,
CC(=O)c1ccc(NC(=O)C(=O)C(C(=O)c2ccc(Cl)c(Cl)c2)C2OC(=O)c3ccccc32)cc1 (stereo unspecified),45.5 µM,> 100 µM,26.9 µM,41 µM,71.5 µM,38.2 µM,> 100 µM,,28.8 µM,,,,,,,,,,
COC1OC(COS(=O)(=O)c2ccc(C)cc2)C(O)C(OS(=O)(=O)c2ccc(C)cc2)C1OS(=O)(=O)c1ccc(C)cc1 (stereo unspecified),> 100 µM,> 100 µM,> 100 µM,> 100 µM,> 100 µM,> 100 µM,> 100 µM,> 100 µM,> 100 µM,,,,,,,,,,
CC1=CC(=O)c2c(C=O)c(O)c(O)c(C(C)C)c2C1=O,32.6 µM,60.1 µM,> 94.5 µM,> 100 µM,> 92.2 µM,77.2 µM,> 100 µM,> 100 µM,57.4 µM,,,,,,,,,,
